According to the NIST ThermoML archive (doi:10.1016/j.tca.2016.04.001):

Legend:
[1] = xn = mol fraction of the nth substance listed; conditions: 87 kPa, Liquid, Vibrating tube method
[2] = 87 kPa, Liquid, Vibrating tube method

OCc1ccccc1 [benzenemethanol] + C=COC(C)=O
[1], x1 = 1
Conditions | mass density [kg/m3]
293.15 K | 1045.21
298.15 K | 1041.38
303.15 K | 1037.5
308.15 K | 1033.63
313.15 K | 1029.71

OC(CCl)CCl [1,3-dichloro-2-propanol]
[2]
Conditions | mass density [kg/m3]
293.15 K | 1362.66
298.15 K | 1356.74
303.15 K | 1350.72
308.15 K | 1344.71
313.15 K | 1338.65

OC(CCl)CCl [1,3-dichloro-2-propanol] + CC(=O)OC(C)(C)C
mass density [kg/m3], [1]
Conditions | 293.15 K | 298.15 K | 303.15 K | 308.15 K | 313.15 K
x1 = 0.0496 | 885.18 | 879.67 | 874.08 | 868.47 | 862.83
x1 = 0.0948 | 902.23 | 896.7 | 891.14 | 885.54 | 879.9
x1 = 0.2007 | 943.76 | 938.26 | 932.7 | 927.12 | 921.51
x1 = 0.3003 | 985.2 | 979.7 | 974.18 | 968.6 | 963
x1 = 0.4001 | 1029.14 | 1023.63 | 1018.09 | 1012.51 | 1006.91
x1 = 0.4991 | 1075.36 | 1069.84 | 1064.27 | 1058.68 | 1053.06
x1 = 0.6003 | 1125.61 | 1120.05 | 1114.46 | 1108.83 | 1103.17
x1 = 0.7009 | 1179.16 | 1173.55 | 1167.9 | 1162.21 | 1156.49
x1 = 0.8013 | 1236.36 | 1230.68 | 1224.95 | 1219.17 | 1213.37
x1 = 0.9032 | 1298.89 | 1293.07 | 1287.22 | 1281.34 | 1275.42
x1 = 0.9507 | 1329.66 | 1323.78 | 1317.85 | 1311.9 | 1305.91
x1 = 1 | 1362.66 | 1356.74 | 1350.72 | 1344.71 | 1338.65

OC(CCl)CCl [1,3-dichloro-2-propanol] + C=COC(C)=O
mass density [kg/m3], [1]
Conditions | 293.15 K | 298.15 K | 303.15 K | 308.15 K | 313.15 K
x1 = 0.0481 | 954.28 | 947.93 | 941.53 | 935.07 | 928.57
x1 = 0.1022 | 978.78 | 972.47 | 966.08 | 959.68 | 953.24
x1 = 0.2021 | 1023.42 | 1017.18 | 1010.91 | 1004.52 | 998.25
x1 = 0.2995 | 1066.61 | 1060.46 | 1054.25 | 1048 | 1041.72
x1 = 0.3953 | 1108.66 | 1102.54 | 1096.39 | 1090.21 | 1083.96
x1 = 0.5002 | 1154.23 | 1148.18 | 1142.09 | 1135.96 | 1129.81
x1 = 0.6003 | 1197.18 | 1191.17 | 1185.12 | 1179.04 | 1172.93
x1 = 0.6999 | 1239.3 | 1233.34 | 1227.29 | 1221.25 | 1215.17
x1 = 0.8007 | 1281.45 | 1275.5 | 1269.5 | 1263.47 | 1257.41
x1 = 0.9014 | 1322.94 | 1317 | 1311 | 1304.98 | 1298.92
x1 = 0.9524 | 1343.43 | 1337.48 | 1331.49 | 1325.46 | 1319.4
x1 = 1 | 1362.66 | 1356.74 | 1350.72 | 1344.71 | 1338.65

OC(CCl)CCl [1,3-dichloro-2-propanol] + CCOC(C)=O
mass density [kg/m3], [1]
Conditions | 293.15 K | 298.15 K | 303.15 K | 308.15 K | 313.15 K
x1 = 0.0442 | 921.07 | 915.01 | 909.02 | 902.88 | 896.68
x1 = 0.0967 | 945.13 | 939.12 | 933.16 | 927.05 | 921.2
x1 = 0.1971 | 991 | 985 | 979.1 | 972.97 | 967.2
x1 = 0.3019 | 1039.05 | 1033.15 | 1027.3 | 1021.22 | 1015.41
x1 = 0.3939 | 1081.4 | 1075.55 | 1069.64 | 1063.7 | 1057.83
x1 = 0.4995 | 1130.18 | 1124.35 | 1118.48 | 1112.58 | 1106.65
x1 = 0.6006 | 1176.92 | 1171.1 | 1165.25 | 1159.37 | 1153.45
x1 = 0.6993 | 1222.62 | 1216.83 | 1210.95 | 1205.06 | 1199.14
x1 = 0.8006 | 1269.78 | 1263.96 | 1258.07 | 1252.15 | 1246.2
x1 = 0.9011 | 1316.79 | 1310.89 | 1304.97 | 1299 | 1293.1
x1 = 0.953 | 1340.9 | 1334.99 | 1329.01 | 1323.02 | 1316.98
x1 = 1 | 1362.66 | 1356.74 | 1350.72 | 1344.71 | 1338.65

OCc1ccccc1 [benzenemethanol] + CC(=O)OC(C)(C)C
[1], x1 = 1
Conditions | mass density [kg/m3]
293.15 K | 1045.21
298.15 K | 1041.38
303.15 K | 1037.5
308.15 K | 1033.63
313.15 K | 1029.71

CCOC(C)=O [ethyl acetate] + OC(CCl)CCl
[1], x2 = 0
Conditions | mass density [kg/m3]
293.15 K | 900.71
298.15 K | 894.65
303.15 K | 888.52
308.15 K | 882.35
313.15 K | 876.12

CCOC(C)=O [ethyl acetate] + OCc1ccccc1
[1], x2 = 0
Conditions | mass density [kg/m3]
293.15 K | 900.71
298.15 K | 894.65
303.15 K | 888.52
308.15 K | 882.35
313.15 K | 876.12

CC(=O)OC(C)(C)C [1,1-dimethylethyl ethanoate] + OC(CCl)CCl
[1], x2 = 0
Conditions | mass density [kg/m3]
293.15 K | 866.95
298.15 K | 861.41
303.15 K | 855.79
308.15 K | 850.17
313.15 K | 844.49

CC(=O)OC(C)(C)C [1,1-dimethylethyl ethanoate] + OCc1ccccc1
mass density [kg/m3], [1]
Conditions | 293.15 K | 298.15 K | 303.15 K | 308.15 K | 313.15 K
x2 = 0 | 866.95 | 861.41 | 855.79 | 850.17 | 844.49
x2 = 0.047 | 874.64 | 869.18 | 863.68 | 858.15 | 852.61
x2 = 0.0925 | 882.2 | 876.83 | 871.43 | 865.99 | 860.52
x2 = 0.2017 | 900.32 | 895.16 | 889.77 | 884.75 | 879.5
x2 = 0.3001 | 916.98 | 912 | 906.99 | 901.96 | 896.9
x2 = 0.4 | 934.1 | 929.3 | 924.47 | 919.62 | 914.74
x2 = 0.4999 | 951.7 | 947.08 | 942.4 | 937.73 | 933.04
x2 = 0.6002 | 969.63 | 965.17 | 960.68 | 956.18 | 951.66
x2 = 0.7027 | 988.3 | 984.07 | 979.75 | 975.42 | 971.06
x2 = 0.7996 | 1006.55 | 1002.4 | 998.24 | 994.06 | 989.87
x2 = 0.9059 | 1026.81 | 1022.83 | 1018.83 | 1014.82 | 1010.79
x2 = 0.9528 | 1035.96 | 1032.06 | 1028.11 | 1024.17 | 1020.21

C=COC(C)=O [vinyl acetate] + OCc1ccccc1
mass density [kg/m3], [1]
Conditions | 293.15 K | 298.15 K | 303.15 K | 308.15 K | 313.15 K
x2 = 0 | 932.41 | 926.01 | 919.56 | 913.07 | 906.52
x2 = 0.0504 | 940.17 | 934.2 | 928.1 | 922 | 915.06
x2 = 0.0954 | 947.04 | 941.4 | 935.7 | 930 | 922.62
x2 = 0.1987 | 961.08 | 955.4 | 949.66 | 943.89 | 938.08
x2 = 0.2999 | 974.18 | 968.88 | 963.51 | 958.06 | 952.57
x2 = 0.3947 | 985.63 | 980.52 | 975.38 | 970.21 | 965
x2 = 0.5005 | 997.61 | 992.77 | 987.91 | 983.01 | 978.09
x2 = 0.5991 | 1008.19 | 1003.62 | 998.97 | 994.32 | 989.64
x2 = 0.7047 | 1019.12 | 1014.77 | 1010.36 | 1005.95 | 1001.51
x2 = 0.8037 | 1028.4 | 1024.23 | 1020.02 | 1015.85 | 1011.55
x2 = 0.9067 | 1037.37 | 1033.39 | 1029.37 | 1025.33 | 1021.27

C=COC(C)=O [vinyl acetate] + OC(CCl)CCl
[1], x2 = 0
Conditions | mass density [kg/m3]
293.15 K | 932.41
298.15 K | 926.01
303.15 K | 919.56
308.15 K | 913.07
313.15 K | 906.52

OCc1ccccc1 [benzenemethanol] + CCOC(C)=O
mass density [kg/m3], [1]
Conditions | 293.15 K | 298.15 K | 303.15 K | 308.15 K | 313.15 K
x1 = 0.0452 | 909.04 | 903.11 | 897.12 | 891.1 | 885.03
x1 = 0.1047 | 919.57 | 913.81 | 908.02 | 902.18 | 896.3
x1 = 0.2008 | 935.91 | 930.43 | 924.91 | 919.36 | 913.77
x1 = 0.3043 | 952.73 | 947.53 | 942.29 | 937.02 | 931.72
x1 = 0.4 | 967.5 | 962.53 | 957.53 | 952.49 | 947.43
x1 = 0.5017 | 982.41 | 977.66 | 972.89 | 968.08 | 963.26
x1 = 0.6006 | 996.27 | 991.73 | 987.15 | 982.56 | 977.95
x1 = 0.7013 | 1009.5 | 1005.14 | 1000.77 | 996.37 | 991.97
x1 = 0.8074 | 1023 | 1018.86 | 1014.67 | 1010.47 | 1006.26
x1 = 0.9042 | 1034.66 | 1030.64 | 1026.67 | 1022.63 | 1018.59
x1 = 0.9537 | 1040.08 | 1036.17 | 1032.23 | 1028.28 | 1024.32
x1 = 1 | 1045.21 | 1041.38 | 1037.5 | 1033.63 | 1029.71

OCc1ccccc1 [benzenemethanol]
[2]
Conditions | mass density [kg/m3]
293.15 K | 1045.21
298.15 K | 1041.38
303.15 K | 1037.5
308.15 K | 1033.63
313.15 K | 1029.71
